Experimental data published in patent publication US20230114728A1 (Venatorx Pharmaceuticals, Inc., priority 2019, published 2023).

Columns and labels:
A. baumannii PBP2 = molecular target: T1, A. baumannii PBP2 (Acinetobacter baumannii, UniProt D0C8Z9); test: Bocillin-FL fluorescence polarization competition binding assay, A. baumannii PBP2; conditions: fluorescence polarization competition binding assay using Bocillin-FL; read-out: A. baumannii PBP2 Potency
T1 construct: made in house
T1 sequence (D0C8Z9 1-672): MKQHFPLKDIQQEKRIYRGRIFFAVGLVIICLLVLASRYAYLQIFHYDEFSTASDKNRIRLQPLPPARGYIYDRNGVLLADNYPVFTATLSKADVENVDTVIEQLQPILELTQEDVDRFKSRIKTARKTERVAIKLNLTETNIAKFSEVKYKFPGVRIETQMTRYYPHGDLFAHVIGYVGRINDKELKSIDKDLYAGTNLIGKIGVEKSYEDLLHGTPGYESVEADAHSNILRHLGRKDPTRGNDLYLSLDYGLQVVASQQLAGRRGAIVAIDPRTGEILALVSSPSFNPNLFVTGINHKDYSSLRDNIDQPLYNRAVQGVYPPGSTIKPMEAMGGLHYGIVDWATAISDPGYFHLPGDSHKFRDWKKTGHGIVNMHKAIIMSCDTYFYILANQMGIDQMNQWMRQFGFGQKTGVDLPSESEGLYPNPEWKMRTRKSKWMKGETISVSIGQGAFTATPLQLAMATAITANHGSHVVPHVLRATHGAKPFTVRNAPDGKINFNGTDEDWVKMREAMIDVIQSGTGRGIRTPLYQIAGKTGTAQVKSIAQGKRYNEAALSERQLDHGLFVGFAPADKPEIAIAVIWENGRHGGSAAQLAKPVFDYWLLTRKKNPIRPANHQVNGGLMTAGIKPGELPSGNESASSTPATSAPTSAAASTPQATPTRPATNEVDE
Source text: (§1) Example I: Experimental Method for Penicillin-Binding Protein Binding Assays with Bocillin-FL Via Fluorescence Polarization
(§2) To determine the ability of boronic acid-based test PBP inhibitors to bind Penicillin Binding Proteins (PBPs), Bocillin-FL (fluorescently-labeled penicillin V; ThermoFisher Scientific) was used in a fluorescence polarization (FP) competition binding assay to assess inhibitor binding to PBP2, PBP3 or PBP4 from Escherichia coli (K12), PBP3 from Pseudomonas aeruginosa (PA01), PBP1a, PBP2 and PBP3 from Acinetobacter baumannii (ATCC 19606), and PBP2 from Neiserria gonorrheae (FA19). PBPs were cloned and purified as described previously (E. coli PBPs, King, D. T, et al., ACS Infectious Diseases 2015, 1, 175-184; P. aeruginosa PBP3, Han et. al., PNAS 2010, 107 (51), 22002-22007; A. baumannii PBPs, Penwell et. al., Antimicrob. Agents Chemother. 2015, 59 (3), 1680-1689; N. gonorrhoeae PBP2, Singh et. al., J Biol. Chem. 2019, 294 (38), 14020-14032). To establish assay conditions for competition binding, enzyme titration/saturation binding experiments were initially performed. Bocillin-FL was prepared at 0.2 μM in a buffer comprised of 50 mM Hepes (pH 8.0), 300 mM NaCl and 5% (v/v) glycerol for reactions with E. coli, P. aeruginosa and N. gonorrhoeae PBPs, and 25 mM Tris (pH 8.0), 200 mM NaCl and 10% (v/v) glycerol and 0.005% (v/v) Tween 20 for reactions with A. baumannii PBPs. Saturation binding was performed by mixing 40 μl of PBP solutions ranging in concentrations from 0-24 μM with 40 μl of the 0.2 μM Bocillin-FL solution, in individual wells of a black 384-well microplate. FP was measured immediately upon mixing (Excitation, 490 nm; Emission, 520 nm; g-factor, 0.96), using a Cytation3 (BioTek) microplate reader and measured continuously for up to 120 minutes. […] The competition binding assay (80 μl final volume) was validated using beta-lactams and PBPs at final concentrations of: 1.5 μM, E. coli PBP3; 0.75 μM, P. aeruginosa PBP3; 1 μM A. baumannii PBP1a; 2.5 μM A. baumannii PBP2; 0.2 μM A. baumannii PBP3; and […] N. gonorrhoeae PBP2. Bocillin-FL was at 0.1 μM (0.05 μM with A. baumannii PBP1a) and beta-lactam concentrations ranged from 0-1000 μM. […] Bocillin-FL was added and the FP immediately measured for up to 60 minutes (90 minutes for E. coli PBP2). […] The beta-lactam potency was reported as the concentration of beta-lactam required to reduce the amount of PBP bound-Bocillin-FL by 50% (EC50). […] Binding assays for boronic acid PBP inhibitors were performed in an identical fashion for the respective PBPs

A. baumannii PBP1a = A. baumannii PBP1a (Acinetobacter baumannii, UniProt A0ABX6CK30); test: Bocillin-FL fluorescence polarization competition binding assay, A. baumannii PBP1a; conditions: fluorescence polarization competition binding assay using Bocillin-FL; column 1; read-out: A. baumannii PBP1a Potency
Source text: as §1, §2

P. aeruginosa PAO1 = test: Broth microdilution MIC in CAMHB; format: cell-based; conditions: Pseudomonas aeruginosa, MHB, read-out: Minimum Inhibitory Concentration, P. aeruginosa PAO1
Description: To determine the ability of test compounds to inhibit the growth of bacterial strains, classic cell based broth microdilution minimum inhibitory concentration (MIC) assays were employed. MIC assays are performed according to CLSI methods except where otherwise noted (CLSI, 2018 and CLSI, 2019). The reference type strain E. coli ATCC 25922; the wild-type parent strain E. coli AG100; the hyper-permeable E. coli 901C and E. coli D22; and the E. coli AG100A strain lacking the acrAB efflux pump encoding genes were used to determine the ability of the PBP inhibitors to penetrate the outer membrane of gram-negative bacteria and inhibit bacterial growth. […] The P. aeruginosa ATCC 27853 and A. baumannii ATCC 19606, along with the hyper-permeable P. aeruginosa ATCC 35151 and an engineered efflux pump-compromised strain of P. aeruginosa (ΔmexAB-oprM) were used to determine the ability of PBP inhibitors to penetrate the outer membrane of P. aeruginosa and A. baumannii and assess antibacterial activity against these important gram-negative organisms.
Briefly, cryo-preserved bacterial cultures of challenge strains are streaked for isolation on appropriate agar medium, in this case cation-adjusted Mueller Hinton agar. Following incubation to allow growth of the colonies, plates are sealed with parafilm and stored refrigerated for up to two weeks. For preparation of assay inoculum and to ensure low variability, at least 5 colonies are picked from the agar plates with an inoculating loop and aseptically transferred to a culture tube containing 3 mL of cation-adjusted Mueller Hinton broth (CAMHB). The broth culture is grown for 3-5 hours at 37° C. with shaking at 200 rpm. Meanwhile, 2-fold serial dilutions of test compounds are conducted in a 96-well plate with a final volume of 75 μL per well at 2-fold the final desired concentration. After the dilution plates are set up the growing cultures are then diluted in a cuvette containing CAMHB and the optical density is measured at 600 nm. The inoculum is diluted such that 75 μL of this culture in CAMHB results in a starting bacterial concentration of 2-8×10^5 CFU/mL when added to the dilution plates. The plates are incubated for 16-20 hours for Enterobacteriaceae and Pseudomonas and 20-24 hours for Acinetobacter at 37° C. The MIC values are read visually as the lowest concentration well with no bacterial growth.

A. baumannii PBP1a, sequence (A0ABX6CK30 entry or part of it): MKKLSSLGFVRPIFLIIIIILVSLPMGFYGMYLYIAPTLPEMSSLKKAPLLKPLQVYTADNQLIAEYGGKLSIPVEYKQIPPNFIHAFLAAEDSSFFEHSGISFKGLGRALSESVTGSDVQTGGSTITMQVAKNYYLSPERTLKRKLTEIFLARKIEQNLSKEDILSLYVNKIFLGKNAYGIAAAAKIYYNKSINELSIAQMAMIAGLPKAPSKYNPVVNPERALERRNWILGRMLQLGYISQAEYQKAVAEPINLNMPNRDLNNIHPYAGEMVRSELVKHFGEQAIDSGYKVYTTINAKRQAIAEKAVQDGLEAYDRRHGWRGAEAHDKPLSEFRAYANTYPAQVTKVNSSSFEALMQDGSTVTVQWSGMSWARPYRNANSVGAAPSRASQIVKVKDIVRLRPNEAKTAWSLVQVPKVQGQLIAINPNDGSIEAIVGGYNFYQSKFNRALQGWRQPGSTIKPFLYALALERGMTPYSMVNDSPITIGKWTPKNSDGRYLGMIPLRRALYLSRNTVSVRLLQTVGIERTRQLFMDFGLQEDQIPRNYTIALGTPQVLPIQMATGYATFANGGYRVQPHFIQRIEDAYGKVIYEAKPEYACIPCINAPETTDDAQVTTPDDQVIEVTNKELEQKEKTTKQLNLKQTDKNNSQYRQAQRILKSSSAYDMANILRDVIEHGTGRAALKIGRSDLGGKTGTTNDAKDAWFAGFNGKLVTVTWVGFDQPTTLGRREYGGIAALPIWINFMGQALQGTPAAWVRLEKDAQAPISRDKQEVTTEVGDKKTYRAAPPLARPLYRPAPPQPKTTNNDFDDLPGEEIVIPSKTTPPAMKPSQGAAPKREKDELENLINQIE

NCCN1CCN(C(=O)N[C@@H](C(=O)N[C@H]2Cc3ccc(F)c(C(=O)O)c3OB2O)c2c(F)cc(O)c(O)c2Cl)C(=O)C1=O (single isomer, unassigned) [Example 26]
EC50 (A. baumannii PBP2): > 100 µM | EC50 (A. baumannii PBP1a): > 100 µM

CCN1CCN(C(=O)NC(C(=O)N[C@H]2Cc3ccc(SCc4ccc(O)cc4)c(C(=O)O)c3OB2O)c2csc(N)n2)C(=O)C1=O (stereo partly drawn) [Example 55, (3R)-3-(2-(2-aminothiazol-4-yl)-2-(4-ethyl-2,3-dioxopiperazine-1-carboxamido)acetamido)-2-hydroxy-7-((4-hydroxybenzyl)thio)-3,4-dihydro-2H-benzo[e][1,2]oxaborinine-8-carboxylic acid]
MIC (P. aeruginosa PAO1): > 128 µg/mL

NCCN1CCN(C(=O)N[C@@H](C(=O)N[C@H]2Cc3ccc(F)c(C(=O)O)c3OB2O)c2c(F)cc(O)c(O)c2F)C(=O)C1=O (single isomer, unassigned) [Example 40]
EC50 (A. baumannii PBP2): 30 to 100 µM | EC50 (A. baumannii PBP1a): > 100 µM

NCCCN1CCN(C(=O)N[C@@H](C(=O)N[C@H]2Cc3ccc(F)c(C(=O)O)c3OB2O)c2c(F)cc(O)c(O)c2Cl)C(=O)C1=O (single isomer, unassigned) [Example 27]
EC50 (A. baumannii PBP2): > 100 µM | EC50 (A. baumannii PBP1a): > 100 µM

CCN1CCN(C(=O)NC(C(=O)N[C@H]2Cc3cccc(C(=O)O)c3OB2O)c2ccc(O)c(NC(=O)c3ccc(O)c(O)c3Cl)c2)C(=O)C1=O (stereo partly drawn) [Example 74, (3R)-3-(2-(3-(2-chloro-3,4-dihydroxybenzamido)-4-hydroxyphenyl)-2-(4-ethyl-2,3-dioxopiperazine-1-carboxamido)acetamido)-2-hydroxy-3,4-dihydro-2H-benzo[e][1,2]oxaborinine-8-carboxylic acid]
EC50 (A. baumannii PBP2): > 100 µM | EC50 (A. baumannii PBP1a): 30 to 100 µM

CCN1CCN(C(=O)NC(C(=O)N[C@H]2Cc3ccc(CO)c(C(=O)O)c3OB2O)c2csc(N)n2)C(O)C1=O (stereo partly drawn) [Example 58, (3R)-3-(2-(2-aminothiazol-4-yl)-2-(4-ethyl-2-hydroxy-3-oxopiperazine-1-carboxamido)acetamido)-2-hydroxy-7-(hydroxymethyl)-3,4-dihydro-2H-benzo[el][1,2]oxaborinine-8-carboxylic acid]
MIC (P. aeruginosa PAO1): > 128 µg/mL

CCN1CCN(C(=O)NC(C(=O)N[C@H]2Cc3ccc(OCCN)c(C(=O)O)c3OB2O)c2ccccc2)C(=O)C1=O (stereo partly drawn) [Example 60, (3R)-7-(2-aminoethoxy)-3-(2-(4-ethyl-2,3-dioxopiperazine-1-carboxamido)-2-phenylacetamido)-2-hydroxy-3,4-dihydro-2H-benzo[e][1,2]oxaborinine-8-carboxylic acid]
MIC (P. aeruginosa PAO1): > 128 µg/mL

O=C(O)c1c(F)ccc2c1OB(O)[C@@H](NC(=O)[C@H](NC(=O)N1CCNC1=O)c1c(F)cc(O)c(O)c1Cl)C2 (single isomer, unassigned) [Example 34]
EC50 (A. baumannii PBP2): 30 to 100 µM | EC50 (A. baumannii PBP1a): > 100 µM

CS(=O)(=O)N1CCN(C(=O)NC(C(=O)N[C@H]2Cc3ccc(F)c(C(=O)O)c3OB2O)c2ccc(O)c(O)c2Cl)C1=O (stereo partly drawn) [Example 23, (3R)-3-(2-(2-chloro-3,4-dihydroxyphenyl)-2-(3-(methylsulfonyl)-2-oxoimidazolidine-1-carboxamido)acetamido)-7-fluoro-2-hydroxy-3,4-dihydro-2H-benzo[e][1,2]oxaborinine-8-carboxylic acid]
EC50 (A. baumannii PBP2): > 100 µM | EC50 (A. baumannii PBP1a): > 100 µM

CCN1CCN(C(=O)NC(C(=O)N[C@H]2Cc3ccc(O[C@@H]4CN[C@H](C(=O)N(C)C)C4)c(C(=O)O)c3OB2O)c2ccccc2)C(=O)C1=O (stereo partly drawn) [Example 59, (3R)-7-(((3S,5S)-5-(dimethylcarbamoyl)pyrrolidin-3-yl)oxy)-3-(2-(4-ethyl-2,3-dioxopiperazine-1-carboxamido)-2-phenylacetamido)-2-hydroxy-3,4-dihydro-2H-benzo[e][1,2]oxaborinine-8-carboxylic acid]
MIC (P. aeruginosa PAO1): > 128 µg/mL

CCN1CCN(C(=O)NC(C(=O)N[C@H]2Cc3ccc(C=O)c(C(=O)O)c3OB2O)c2csc(N)n2)C(=O)C1=O (stereo partly drawn) [Example 57, (3R)-3-(2-(2-aminothiazol-4-yl)-2-(4-ethyl-2,3-dioxopiperazine-1-carboxamido)acetamido)-7-formyl-2-hydroxy-3,4-dihydro-2H-benzo[e][1,2]oxaborinine-8-carboxylic acid]
MIC (P. aeruginosa PAO1): > 128 µg/mL
